The results in this text go back to patent US20260115249A1, “NEURAL REPAIR COMPOSITION, METHOD OF PREPARATION, AND USE THEREOF” (SHENZHEN JINFENG BIOMEDICAL TECH. CO., LTD., priority 2023, published 2026).

For one assay, the system named is mice. The assay is described as follows: Forced swim test in LPS-treated mice (improvement of depression). Particulars: forced swim test on Day 6; oral gavage 0.02 mL/10 g daily Days 1-5; LPS 1 mg/kg intraperitoneally Days 3, 4, 5; 10 mice per group. The class given is in vivo. On the procedure: (§1) The antidepressant effect of the composition was evaluated through the forced swim test in mice and measurement of oxidative stress levels in the cerebral cortex. Specific procedures were as follows:
(§2) Mice aged 8-9 weeks were selected as test subjects (10 mice per composition group for differential analysis and multiple comparisons; in differential analysis, * denoted p<0.05, ** p<0.01, *** p<0.001). The neural repair compositions prepared in the above examples and comparative examples were administered to mice via oral gavage. A positive control group treated with lipopolysaccharide (LPS) and a blank control group treated with physiological saline were included. From Days 1-5, mice were orally gavaged daily at the same time with 0.02 mL (normalized to body weight)/10 g of the compositions. On Days 3, 4, and 5, LPS (1 mg/kg) was intraperitoneally administered alongside the compositions. The positive control group differed by receiving only LPS (1 mg/kg) on Days 3, 4, and 5, while the blank control group received physiological saline throughout Days 1-5. On Day 6, behavioral tests (immobility time in the forced swim test, in s) and tissue sampling for oxidative stress assessment (reactive oxygen species absorption levels, expressed as absorbance) were conducted. The results are detailed in FIG. *to FIG. 2 and Tables 1-2.

In another assay the test system is reactive oxygen species. The assay is described as follows: Oxidative stress level (ROS) in the cerebral cortex of LPS-treated mice. The format is in vivo. The note with it: cerebral cortex sampled Day 6; oral gavage 0.02 mL/10 g daily Days 1-5; LPS 1 mg/kg intraperitoneally Days 3, 4, 5. As to the method:
as §1, §2

lipopolysaccharide [LPS]: the “Immobility time of mice” value with mice is 230 ± 26 s. The ROS absorption level with reactive oxygen species came to 0.47 ± 0.10 absorbance.
